Experimental data reported in US20230263786A1, “MODULATION OF DRUG-DRUG INTERACTIONS OF VADADUSTAT” (Akebia Therapeutics, Inc., priority 2020, published 2023).

What was measured:
[1] = Plasma pharmacokinetics, 150/300/600 mg once daily, first day; assay type: in vivo; details: male, human, healthy adult men
CYP2B6 = target: T1, CYP2B6 (Homo sapiens, UniProt P20813); experiment: CYP2B6 inhibition in vitro; assay type: in vitro ADME
T1 sequence (P20813 1-491): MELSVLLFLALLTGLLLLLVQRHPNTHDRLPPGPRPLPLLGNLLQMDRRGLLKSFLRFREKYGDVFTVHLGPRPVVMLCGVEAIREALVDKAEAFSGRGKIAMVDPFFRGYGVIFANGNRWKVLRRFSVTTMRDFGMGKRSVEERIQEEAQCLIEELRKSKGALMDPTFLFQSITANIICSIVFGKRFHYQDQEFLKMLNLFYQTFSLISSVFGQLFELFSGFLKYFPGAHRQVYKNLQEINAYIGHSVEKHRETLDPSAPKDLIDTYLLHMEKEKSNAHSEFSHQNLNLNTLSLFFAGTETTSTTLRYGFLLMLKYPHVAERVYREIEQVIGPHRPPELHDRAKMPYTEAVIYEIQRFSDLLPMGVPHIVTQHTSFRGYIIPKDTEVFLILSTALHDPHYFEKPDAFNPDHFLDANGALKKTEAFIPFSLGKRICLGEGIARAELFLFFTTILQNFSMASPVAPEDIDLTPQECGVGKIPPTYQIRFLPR

[2] = Phase 1 oral iron interaction study, Cohort 2 (before meal): sucroferric oxyhydroxide; assay type: in vivo, human; details: for AUC(0-inf) / AUC(0-t) / Cmax / half-life: male, human, plasma, oral; for AUC(0-inf): read-out: AUC(0-inf), LS geometric mean; for AUC(0-t): read-out: AUC(0-last), LS geometric mean; for Cmax: read-out: Cmax, LS geometric mean; for half-life: read-out: t1/2, LS geometric mean (converted)
Excerpt: (§1) The study included 3 periods as follow: • Screening: performed within 4 weeks before the day of administration of the study drug. • Evaluation period: Cohort 1 was confined to the study site for 10-night, 11-day. Cohort 2 and Cohort 3 were confined to the study site for 7 nights and 8 days. • Post-administration tests: performed 3 days after administration of the last dose of the study drug.
In Cohort 2, 20 subjects were further randomized into 2 groups (10 subjects per group) and the evaluation period was divided into 2 periods during the study:
(§2) Administration of vadadustat tablets alone: after fasting for at least 10 hours and immediately before eating breakfast (5 minutes before starting the meal), 1 vadadustat tablet (150 mg) will be taken orally with 200 mL of water, then breakfast would be eaten over a period of 10 minutes (extra water may be drunk if more is needed when taking the tablet, and the extra volume would be recorded). After breakfast, subjects would fast until the end of the collection of blood samples at 4 hours after administration of the study drug. Subjects would eat lunch over a period of 20 minutes after blood samples were collected at 4 hours after administration of the study drug. After lunch, subjects would fast until dinner, when they would eat dinner over a period of 20 minutes at 10 hours after administration of the study drug. Subjects would fast from dinner until breakfast the next morning.
Administration of vadadustat tablets and sucroferric oxyhydroxide: after fasting for at least 10 hours and immediately before eating breakfast (5 minutes before starting the meal), subjects would chew and swallow 2 tablets of sucroferric oxyhydroxide (containing 1000 mg of iron), then 1 vadadustat tablet (150 mg) would be taken orally with 200 mL of water, then breakfast would be eaten over a period of 10 minutes (extra water may be drunk if more is needed when taking the tablets, and the extra volume would be recorded). After breakfast, subjects would fast until the end of the collection of blood samples at 4 hours after administration of the study drug. After blood samples were collected at 4 hours after administration of the study drug and immediately before lunch, subjects would chew and swallow 2 tablets of sucroferric oxyhydroxide (containing 1000 mg of iron), then eat lunch over a period of 20 minutes. After lunch, subjects will fast until dinner, and immediately before dinner at 10 hours after administration of the study drug, chew and swallow 2 tablets of sucroferric oxyhydroxide (containing 1000 mg of iron), then eat dinner over a period of 20 minutes. Subjects would fast from dinner until breakfast the next morning.

[3] = Phase 1 oral iron interaction study, Cohort 3 (fasting): dried ferrous sulfate slow release; assay type: in vivo, human; details: for AUC(0-inf) / AUC(0-t) / Cmax / half-life: male, human, plasma, oral; for AUC(0-inf): read-out: AUC(0-inf), LS geometric mean; for AUC(0-t): read-out: AUC(0-last), LS geometric mean; for Cmax: read-out: Cmax, LS geometric mean; for half-life: read-out: t1/2, LS geometric mean (converted)
Excerpt: as §1
In Cohort 3, 20 subjects were further randomized into 2 groups (10 subjects per group) and the evaluation period was divided into 2 periods during the study:
as §2, with “hours,” for “hours and immediately before eating breakfast (5 minutes before starting the meal),”, “would” for “will”, “water” for “water, then breakfast would be eaten over a period of 10 minutes”, “Subjects” for “After breakfast, subjects”
as §2, with “and dried ferrous sulfate:” for “alone:”, “hours,” for “hours and immediately before eating breakfast (5 minutes before starting the meal),”, “and 2 tablets of dried ferrous sulfate (containing 210 mg of iron) would” for “will”, “water” for “water, then breakfast would be eaten over a period of 10 minutes”, “tablets,” for “tablet,”, “Subjects” for “After breakfast, subjects”

[4] = 150 mg with sucroferric oxyhydroxide (1000 mg iron), before meal
[5] = 150 mg with dried ferrous sulfate slow release (210 mg iron), fasting

Structure (SMILES): O=C(O)CNC(=O)c1ncc(-c2cccc(Cl)c2)cc1O [Compound 1, {[5-(3-chlorophenyl)-3-hydroxypyridine-2-carbonyl]amino}acetic acid]
- AUC(0-t) ([1]; 150 mg once daily): 123000 ± 30500 ng·h/mL
- Cmax ([1]; 150 mg once daily): 24200 ± 4990 ng/mL
- Tmax ([1]; 150 mg once daily): 0.75 h
- half-life ([1]; 150 mg once daily): 5.96 ± 0.914 h
- AUC(0-t) ([1]; 300 mg once daily): 289000 ± 75300 ng·h/mL
- Cmax ([1]; 300 mg once daily): 44300 ± 10800 ng/mL
- Tmax ([1]; 300 mg once daily): 1.95 h
- half-life ([1]; 300 mg once daily): 6.14 ± 0.763 h
- AUC(0-t) ([1]; 600 mg once daily): 624000 ± 205000 ng·h/mL
- Cmax ([1]; 600 mg once daily): 84800 ± 22300 ng/mL
- Tmax ([1]; 600 mg once daily): 1.98 h
- half-life ([1]; 600 mg once daily): 6.07 ± 0.419 h
- inhibitory effect on CYP2B6 (CYP2B6): inhibitory effect
- Kel, LS geometric mean [2, 4]: 0.16 h⁻¹
- Kel, LS geometric mean ([2]; Compound 1 150 mg alone, before meal): 0.13 h⁻¹
- AUC(0-inf) ([2]; 150 mg): 99500 ng·h/mL
- AUC(0-t) ([2]; 150 mg): 95700 ng·h/mL
- Cmax ([2]; 150 mg): 15200 ng/mL
- half-life ([2]; 150 mg): 5.17 h
- AUC(0-inf) [2, 4]: 45700 ng·h/mL
- AUC(0-t) [2, 4]: 44500 ng·h/mL
- Cmax [2, 4]: 8810 ng/mL
- half-life [2, 4]: 4.33 h
- Kel, LS geometric mean [3, 5]: 0.14 h⁻¹
- Kel, LS geometric mean ([3]; Compound 1 150 mg alone, fasting): 0.13 h⁻¹
- AUC(0-inf) ([3]; 150 mg): 128000 ng·h/mL
- AUC(0-t) ([3]; 150 mg): 124000 ng·h/mL
- Cmax ([3]; 150 mg): 26500 ng/mL
- half-life ([3]; 150 mg): 5.17 h
- AUC(0-inf) [3, 5]: 13200 ng·h/mL
- AUC(0-t) [3, 5]: 12000 ng·h/mL
- Cmax [3, 5]: 2140 ng/mL
- half-life [3, 5]: 4.8 h
